Patent US20100190737A1, “COMPOSITIONS COMPRISING INOSINE AND OROTIC ACID AND METHODS OF USE THEREOF FOR THE TREATMENT OF CERTAIN HEART CONDITIONS AND ENHANCEMENT OF WORK CAPACITY” (NUTRITIONAL RESEARCH GROUP LLC, priority 2009, published 2010)

What was measured:
patients with arrhythmia = test: Case studies: patients with arrhythmia given inosine/magnesium orotate capsules; assay type: in vivo, human; conditions: Example 5
Excerpt: Another cardiac condition prevalent in the population is arrhythmia. Cardiac arrhythmia is characterized by an abnormal rate of cardiac muscle contractions. The rate of contractions may be too slow, too fast, too frequent or too infrequent. The present pharmaceutical composition stabilizes the cardiac arrhythmia.

[1] = test system: chinchilla rabbits with experimental myocardial infarction; test: Experimentally-induced myocardial infarction (coronary artery ligation); assay type: in vivo, rabbit; conditions: for NN of Animals With Necrosis: of 10 animals; for EKG Q: oral 100 mg/kg BW of each ingredient daily
Protocol: Histological, light microscopic methods of investigation have been employed to study the zone of necrosis, perinecrotic zone and myocardium regions spaced from the time of infarction by 7 and 14 days after the infarction event. Dynamic electrocardiographic observation over the animals was carried out during the first day and during the following 7 and 14 days. The study of the total cross-sectional patterns of a rabbit's heart has made it possible to precisely define these zones. The first Group of 10 animals was sham-operated without treatment (Group I, positive control-Intact, no MI). […] Group II animals were without treatment (negative control-MI Control).

[2] = test system: rats with experimental aortic stenosis; test: Short term (7 day) experimental aortic stenosis: heart weight and swimming to exhaustion; assay type: in vivo, rat; conditions: EAS rats; for Heart Weight: intragastric daily
Excerpt: There are two 7 day experiments in this portion of the study; a preliminary 7 day study with 54 rats in 9 groups (6 rats per group) to determine optimal dosage levels for the separate inosine or potassium orotate ingredients for farther experimentation by determination of maximal heart weight development and work capacity; and then a study with 30 rats in 5 groups (6 rats per group) using the optimal single ingredient dosage levels for comparison with the results of a composition of the ingredients. All compounds were administered intragastrically through a tube after being dissolved in approximately 1 ml of water.
A single control group received a sham operation, while the rest of the groups received experimental aortic stenosis (“EAS”) operations (all according to Beznak in Journal Physiol. (Lond.) 120.23P, 1953 as modified by Kogan, Bull eksper. Biol. Med., 26:112, 1961 and then the other 13 groups received various treatments and dosages of inosine or potassium orotate or a composition of the two ingredients after the optimal inosine and potassium orotate dosages were determined. All animals were tested at the beginning and end of the experiment for swimming to exhaustion times with a 7.5% body weight load attached to their tails.
Sach compound, i.e., inosine and potassium orotate, was administered at different doses and the level of heart hypertrophy and work capacity was observed. Each of the compounds was evaluated in four doses: 12.5 mg/kg, 25 mg/kg, 50 mg/kg and 100 mg/kg body weight. Six animals were used in each group for inosine [4 groups] and potassium orotate [4 groups] plus the one control group (sham operated, no treatment); 54 animals in total.
Thirty white rats were divided into 5 groups (6 animals in each group). Group I was a sham-operated control group, Group II animals with experimental aortic stenosis but were untreated, Groups III, IV & V animals, all with experimental aortic stenosis received by an intragastric tube each day, either inosine (25 mg/kg body weight), potassium orotate (50 mg/kg body weight) or an composition of inosine (25 mg/kg body weight) plus potassium orotate (50 mg/kg body weight), respectively.

white rats = test: Long-term (6 months) work capacity in trained and non-trained rats; conditions: untrained rats
Protocol: Seventy two white rats were randomly placed in 6 groups (12 animals each), to test the effectiveness of training and to determine morphological and physiological alterations in the rats. In Group I, control rats were nontrained and not administered either of inosine or the combination of inosine and orotate; Group II comprised non-trained rats to which were administered inosine (25 mg/kg/body weight; Group III comprised non-trained rats to which were administered the combination of inosine plus potassium orotate (25 mg/kg/body weight of inosine and 50 mg/kg/body weight potassium orotate); Group IV comprised trained rats that were not administered either of inosine or the combination of inosine and orotate; Group V comprised trained rats to which was administered inosine alone (25 mg/kg/body weight), and Group VI comprised trained rats to which was administered the combination of inosine plus potassium orotate (25 mg/kg/body weight of inosine and 50 mg/kg/body weight potassium orotate).
Training of rats consisted of their forced swimming in a water bath (28-30° C.) with a weight fixed on their backs (7.5% of the rat body weight). During the first two weeks the animals swam daily for 5-10 minutes, after which we determined the individual maximum time of swimming to exhaustion (i.e. maximum work capacity) for each animal and then calculated the mean maximum time for each group. After 2 weeks these initial maximum work capacity values were used for planning and performing additional swimming training.
The functional condition of the rats at rest was estimated from their work capacity (maximum swimming time), body weight increase, EKG tests, oxygen consumption and sodium and potassium levels in the myocardium in a relatively quiet state. The morphological state of the heart and other viscera were rated from their absolute and relative weights, and also from histological and histochemical examinations of the myocardium. Also determined were the amounts of glycogen in the m. quadriceps (quadriceps group of muscles) of the hip, the myocardium and the liver. All the quantitative results obtained were processed with conventional statistical procedures.

mice = test: Short term (14 day) work capacity: swimming lengths within 30 minutes, hepatic glycogen; assay type: in vivo, mouse; conditions: for Swimming lengths / increase in number of swimming lengths: 14 days
Protocol: Seventy two animals (mice) were divided into 12 groups of 6 animals each; a control group (untreated) and 11 test groups that were intragastrically administered varying daily doses of inosine, potassium orotate or an inosine plus potassium orotate combination (the “combination”) for 14 days. […] The swimming exercise consisted of forcing the animals to perform repetitive swimming in a three meter long channel until exhaustion. The level of exhaustion was determined by a count of the number of swimming lengths which each animal did within 30 minutes. A lower number of swimming lengths indicated a greater level of exhaustion, whereas a higher number of lengths indicated a greater work capacity.

[3] = seventh day, inosine 25 mg/kg BW, potassium orotate 50 mg/kg BW, alone or together
[4] = seventh day, inosine 25 mg/kg BW, potassium orotate 50 mg/kg BW, alone or together, listed as orotate

COCCc1ccc(OCC(O)CNC(C)C)cc1 (centres unmarked) [Toprol]
arrhythmia episodes per week (patients with arrhythmia; 50 mg Toprol daily, one month, from 3-4 times weekly): 2-3 per week

O=C(O)c1cc(=O)[nH]c(=O)[nH]1 [orotic acid]
Thickness of Left Ventricular Wall ([1]; Day 7): 5.0 ± 0.61 mm
EKG QRS ([1]; Day 7, 100 mg/kg BW each): 0.07 ± 0.003 s
EKG R ([1]; Day 7, 100 mg/kg BW each): 4.2 ± 0.030 mm
NN of Animals With Necrosis ([1]; Day 7, MI control 10): 5
EKG Q ([1]; Day 7): 1.0 ± 0.02 mm
EKG QRS ([1]; Day 14): 0.06 ± 0.016 s
EKG R ([1]; Day 14): 4.4 ± 0.27 mm
Thickness of Left Ventricular Wall ([1]; Day 14): 5.4 ± 0.23 mm
NN of Animals With Necrosis ([1]; Day 14, MI control 3): 0
EKG Q ([1]; Day 14): 0.6 ± 0.05 mm
reduction in necroses ([1]; administered individually, 100 mg/kg): 50%
hemorrhages or infiltration in the infarction zone ([1]; by the fourteenth day): virtually had no hemorrhages or infiltration in the infarction zone
restoration of EKG readings ([1]; by the seventh experimental day): nearly a complete restoration of the voltage of EKG waves and of the systolic index

CCC(=O)O[C@@H](O[P@](=O)(CCCCc1ccccc1)CC(=O)N1C[C@H](C2CCCCC2)C[C@H]1C(=O)[O-])C(C)C.[Na+] [Monopril]
blood pressure (systolic over diastolic) (patients with arrhythmia; 10 mg Monopril with 50 mg Toprol daily, one month, from 165/105): 150/95
blood pressure (systolic over diastolic) (patients with arrhythmia; Monopril increased to 20 mg): 145/90

O=C([O-])c1cc(=O)[nH]c(=O)[nH]1.[K+] [potassium orotate]
swimming time ([2]; day 7, 12.5 mg/kg intragastrically, EAS control 15±5.0, sham 62±5.0): 18 ± 4.0 min
swimming time ([2]; day 7, 25 mg/kg): 22 ± 3.0 min
swimming time ([2]; day 7, 50 mg/kg): 32 ± 3.0 min
swimming time ([2]; day 7, 100 mg/kg): 30 ± 3.0 min
relative heart weight ([2]; seventh day, 12.5 mg/kg, EAS control 400±8.9, sham 300±5.0): 420±6.0 mg/100 g. body weight
relative heart weight ([2]; seventh day, 25 mg/kg): 440±11 mg/100 g. body weight
relative heart weight ([2]; seventh day, 50 mg/kg): 460±16 mg/100 g. body weight
relative heart weight ([2]; seventh day, 100 mg/kg): 465±15 mg/100 g. body weight
swimming time [2, 3]: 33 ± 4 min
Heart Weight [2, 3]: 460±16 mg/100 gr BW
Heart Weight [2, 4]: 460 ± 16 mg/100 gr BW
swimming time [2, 4]: 33 ± 4.0 min
Heart weight after 6 mo. (white rats): 304 ± 9.2 mg/100gk BW
Oxygen consumption End of experiment (white rats): 27.0 ± 0.60 ml/min/kg BW
Swimming time Before (white rats): 72 ± 4.0 min
Glycogen in m. quadriceps, After work (white rats; end of experiments): 488 ± 15.0
Glycogen in m. quadriceps, In rest (white rats; end of experiments): 860 ± 16.0
Swimming time After 6 mo. (white rats; INO 25 mg/kg, PO 50 mg/kg): 80 ± 4.2 min
Swimming lengths (mice; 25 mg/kg BW): 40.2
increase in number of swimming lengths (mice; 25 mg/kg/body weight daily): 60.7%
Swimming lengths (mice; 50 mg/kg BW): 45.6
increase in number of swimming lengths (mice; 50 mg/kg/body weight daily): 82.2%
Swimming lengths (mice; 100 mg/kg BW): 56.3
increase in number of swimming lengths (mice; 100 mg/kg/body weight daily): 125%
Swimming lengths (mice; 200 mg/kg BW): 44.6
increase in number of swimming lengths (mice; 200 mg/kg/body weight daily): 78.3%
mean decrease of hepatic glycogen stores during the swimming exercise (mice; controls 67.5% from baseline): 18.5%
increased hepatic glycogen content (mice; inosine 25 mg/kg, potassium orotate 50 mg/kg, or combination): 18%
